# Test system: W303-1B/Δydl120w::Kan^R yeast
# Assay: Growth of mutant yeast in medium supplemented with Fe(II) or Cu(II) ions (OD620)
# Assay type: cell-based, Saccharomyces cerevisiae
# Details: increasing concentrations of the metal salt, SD+ medium, 19 hours at 30° C., FIG. 2A/2B
# Description: For this experiment, W303-1B/Δydl120w::Kan^R and wild-type yeast precultures were grown in YPD medium for 16-24 hours at 30° C. until OD600 0.4-0.6. The precultures were diluted into SD+ medium (6.7 mg/ml yeast nitrogen base w/o amino acids, 2 mg/ml yeast extracts, 0.04 mg/ml adenine sulfate, 0.0625 mg/ml uracil, 0.04 mg/ml L-leucine, 0.03 mg/ml L-histidine-HCl, 0.03 mg/ml L-tryptophane in water) supplemented with variable concentrations of FeSO4 (dissolved in 0.1 N HCl) or CuSO4 (dissolved in water). Aliquots of 100 microliter of yeast suspension were dispensed into single wells of a 96-well microtiter plate. In the experiments with FeSO4 supplementation (FIG. 2A) culture medium for W303-1B/Δydl120w::Kan^R and wild-type yeast contained 4% w/v glucose and all wells were adjusted to the same final concentration of HCl and to DMSO (1% v/v) to prevent the solvent from interfering with the results.
# Following 19 hours of culture at 30° C., the growth of yeast was determined by OD620 measurement using a microplate reader.
row,Structure (SMILES),growth of yeast as determined by OD620 measurement
1,O=S(=O)([O-])[O-].[Cu+2] [CuSO4],clearly inhibit the growth of the frataxin deficient yeast
2,O=S(=O)([O-])[O-].[Fe+2] [FeSO4],clearly inhibit the growth of the frataxin deficient yeast

# Source: patent US20050118576A1, “Novel method and assays for yeast-based drug screening” (priority 2000, published 2005)
